For series [1], the system named is endothelial cells occurring in MATRIGEL plugs. The experiment in a line: In vivo […] plug angiogenesis model. Set-up: species or system athymic (nu/nu) Balb/c mice. The conditions noted are these: mouse. As to the method: LX1 human lung tumor fragments that were maintained by serial subcutaneous passage in athymic (nu/nu) Balb/c mice were implanted subcutaneously as small fragments approximately 0.1 mm^3 in size. Tumor volume doubling time for this tumor in these studies was 2.8 days. When tumors reached the size range of 150-200 mm^3, liquid […] was injected subcutaneously on the side contralateral to the tumor. Treatment was initiated 24 hours later at varying doses and schedules. Prior to implanting, […] is prepared by placing solidified […] on ice overnight at 4 C in accordance with the method described by Passiniti et al. (Lab. Invest. 1992 67:519-28). At the liquid phase and while on ice, VEGF and bFGF (Peprotech, Inc. Rocky Hill, NJ) is added to the […] at final respective concentrations of 75 ng/ml and 300 ng/ml. Stock solutions of these growth factors are made fresh at 10 mg/ml in PBS. […] These plugs were then processed for paraffin embedding and sectioned at 5 µm thickness followed by staining with hematoxylin and eosin prior to quantitative analysis. The number of endothelial cells in plugs was quantitated using the IMAGEPRO PLUS software (Media Cybernetics, Inc., Silver Spring, MD) at a magnification of 20x. […]
Angiogenesis is evaluated in these plugs as the number of endothelial cells migrating into plugs from compound treated groups relative to the vehicle treated group. […]

The subject of series [2] is human breast carcinoma line H3396. The experiment in a line: H3396 tumor cell proliferation (3H-thymidine incorporation). It counts as cell-based. The method, then: Primary human umbilical vein endothelial cells (HUVEC) were purchased from CLONETICS Inc. (San Diego, CA) and used at passage 2 to 3. Proliferation was measured using ^3H-thymidine incorporation in cells by pulsing twenty-four hours prior to harvesting cell cultures. The human breast carcinoma line H3396 was used to assess activity of compound on tumor cells. Cells (2 × 10^3) were plated on collagen IV coated 96 well plates. Twenty-four hours later, compounds were added at varying concentrations. After 48 hours, ^3H-thymidine was added and cells were allowed to incorporate this label over a twenty-four hour period. Cellular extracts were harvested onto glass filters and incorporated radioactivity was determined by counting in a Beta scintillation counter. The IC50, defined as the drug concentration that causes 50% inhibition of ^3H-thymidine incorporation, was extrapolated from the plotted data. Cell selective inhibition for endothelial cells by a particular compound was defined by at least a ten-fold greater inhibition of HUVEC primary cell cultures when compared to the H3396 tumor cell line.
Background: Dividing cells build labelled thymidine or BrdU into new DNA.

The test system of series [3] is human umbilical vein endothelial cell (HUVEC). The experiment in a line: HUVEC proliferation (3H-thymidine incorporation). It counts as cell-based. The note with it: second value of two separate experiments, read-out: IC50 in Cells HUVEC.
Procedure: Primary human umbilical vein endothelial cells (HUVEC) were purchased from CLONETICS Inc. (San Diego, CA) and used at passage 2 to 3. Proliferation was measured using ^3H-thymidine incorporation in cells by pulsing twenty-four hours prior to harvesting cell cultures. […] Cells (2 × 10^3) were plated on collagen IV coated 96 well plates. Twenty-four hours later, compounds were added at varying concentrations. After 48 hours, ^3H-thymidine was added and cells were allowed to incorporate this label over a twenty-four hour period. Cellular extracts were harvested onto glass filters and incorporated radioactivity was determined by counting in a Beta scintillation counter. The IC50, defined as the drug concentration that causes 50% inhibition of ^3H-thymidine incorporation, was extrapolated from the plotted data.
In series [4] the test system is mammary 16/C murine carcinoma. Kind of series: Staged subcutaneous mammary 16/C carcinoma in mice, gross log cell kill. Format: in vivo, C3H mice. The text has this: The final concentrations of each component of the vehicle was as follows: CREMOPHOR 10%; ethanol […]; aqueous 80%.
C3H conventional mice were purchased from Harlan-Sprague Dawley (Indianapolis, IN) and fed mouse chow and water ad libitum.
The metastatic mammary 16/C murine carcinoma was propagated biweekly in C3H mice. Experiments were initiated by subcutaneous insertion by trocar of tumor fragments.
For in vivo tumor testing, the C3H mice were implanted subcutaneously with mammary 16/C tumor fragments. All treatments were initiated on Day 10 post-tumor implant, except for an untreated control group. All groups contained 8 mice. Tumors were measured once or twice weekly and dimensions were converted to weights using the formula Weight (milligrams)= […], where a=length and b=width (in millimeters). The median time for tumors within each group of mice to reach 1 gram was determined and the delays in median time to reach 1 gram tumor target size for treated (T) versus control (C) groups was calculated. These delays in tumor growth (T-C value in days) were further converted to gross log cell kill (LCK) values using the formula T-C/(tumor volume doubling time, TVDT, of the control group) x (3.32). A LCK of greater than or equal to 1 LCK was considered an active result. Cures were assessed at the end of each experiment and defined in the absence of a tumor mass of greater than 35 milligrams. Experiments were terminated more than 10 x TVDT following the completion of all treatments.

The subject of series [5] is drug-resistant Lewis Lung carcinoma. The note with it: 170 mg/kg every 6 days versus other cyclophosphamide schedules tested (e.g. 135 mg/kg every 4 days); cited from earlier work.
The mark [6] stands for this setting: metronomic regime 20 mg/kg orally, q2dx15, cumulative dose 300 mg/kg.

pIC50: −log10 of the molar value. Where two headings read alike, the source gives them in different places.

Source text for L2987 human lung tumors: L2987 human lung tumors were implanted and allowed to reach 50 to 100 mm^3 before drug administration.

What is called pIC50 is −log10 of the IC50, conventionally taken in molar units. As to `COC(=O)O[C@@]12CO[C@@H]1C[C@H](O)[C@@]1(C)C(=O)[C@H](OC(C)=O)C3=C(C)[C@@H](OC(=O)[C@H](O)[C@@H](NC(=O)OC(C)(C)C)C(C)(C)C)C[C@@](O)([C@@H](OC(=O)c4ccccc4)[C@H]21)C3(C)C` [Formula I, 3'-tert-Butyl-3'-N-tert-butyloxycarbonyl-4-deacetyl-3'-dephenyl-3'-N-debenzoyl-4-O-methoxycarbonyl-paclitaxel], the “doses lower than the maximum tolerated dose at which anti-angiogenic effects are still observed in vivo” value in series [1] was “approximately 13 fold”. Also, the pIC50 in series [2] (H3396, read-out: IC50 in Cells H3396, second value of two separate experiments) was 8.52. In addition, the weight loss entry in the series on L2987 human lung tumors (60 mg/kg orally, standard schedule q2dx5 (MTD), cumulative dose 300 mg/kg) is “weight loss was also observed”. For the same molecule, the anti-tumor response result in the series with L2987 human lung tumors (60 mg/kg orally, standard schedule q2dx5 (MTD), cumulative dose 300 mg/kg, compared with metronomic regime) is on record as “greater anti-tumor response was observed”. In the series on L2987 human lung tumors (setting [6]), the tumor growth result is reported as “suppressed tumor growth” and the weight loss entry is on record as “no weight loss was observed”.

For `CC(=O)O[C@H]1C(=O)[C@@]2(C)[C@H]([C@H](OC(=O)c3ccccc3)[C@]3(O)C[C@H](OC(=O)[C@H](O)[C@@H](NC(=O)c4ccccc4)c4ccccc4)C(C)=C1C3(C)C)[C@]1(OC(C)=O)CO[C@@H]1C[C@@H]2O` [TAXOL, paclitaxel], the pIC50 was 8.40 in series [2] (H3396, second value of two separate experiments, read-out: IC50 in Cells H3396) and 8.30 in series [3]. Also, the cures/total in series [4] (Paclitaxel 20 mg/kg/inj qd 10-14 iv, Paclitaxel 30 qd 32-36 iv, no Formula I, Day 88 post-tumor implant) is listed as 1/8; in series [4] (Paclitaxel 30 mg/kg/inj qd 10-14 iv only, Day 60 post tumor implant), 2/8; in series [4] (Paclitaxel 30 mg/kg/inj qd 10-14 iv, Paclitaxel 30 qd 32-36 iv, no Formula I, Day 88 post-tumor implant, listed as Paclitaxel), 2/8; in series [4] (Paclitaxel 30 mg/kg/inj qd 10-14 iv, Paclitaxel 30 qd 32-36 iv, no Formula I, Day 88 post-tumor implant, listed as paclitaxel), 2 of 8; in series [4] (Paclitaxel 45 mg/kg/inj qd 10-14 iv only, Day 60 post tumor implant) it was 1/8. For the same molecule, the “likely MTD regimen” value in series [4] (during each of the two courses of treatment (qdx5; 10, 32, iv)) was 30 mg/kg/inj. In series [4] (qdx5, iv, beginning on Day 10 post-tumor implant, single course), the MTD regimen was determined as 45 mg/kg/injection.

On to `O=P1(N(CCCl)CCCl)NCCCO1` (stereo not shown) [cyclophosphamide], for which, in series [5], the controlling tumor growth entry was “more effective”.
